From PMC10460389, “Design of 8-mer peptides that block Clostridioides difficile toxin A in intestinal cells” (Communications Biology, 2023)

Experiments:
TcdA GTD catalytic site = conditions: cited from earlier work
[1] = test system: small intestinal (jejunum) cells exposed to TcdA; conditions: cited from earlier work
C. diff. infection = conditions: antibiotic treatment (metronidazole and vancomycin); cited from earlier work
Source text: Multiple therapeutic approaches have been developed to treat C. diff. infection. The standard practice is treatment with antibiotics (metronidazole and vancomycin), but in 20% of cases infection reoccurs. Exposure to these antibiotics alters the microbial community in the gut, facilitating colonization by C. diff[21].

TcdA GTD = conditions: 0.5 μM UDP-Glucose-Fluorescein 15 min; vs no-TcdA-AF594 no-UDP-Glucose-Fluorescein control RP(-T -U) for SA1; two-tailed T-test
Procedure: For the bead-based assay, statistical analyses were performed using a two-tailed T-test in conjunction with the RP (-T) control. Significance was determined at p < 0.05. […] Approximately 40 beads were imaged for each sample, with images containing out-of-focus beads or bead aggregates being excluded. […] Each SPR sensor was used to run two samples across two separate channels, leading to a total of 14 measurements. However, one measurement was excluded due to the loss of a stable signal.

GMFWQHRRHD [NPB, computationally designed 10-mer peptide from previous work]
ΔGbinding (TcdA GTD catalytic site): -11.35 | neutralization of TcdA in jejunum / small intestinal cells [1]: neutralized toxin A in jejunum cells

Cc1ncc([N+](=O)[O-])n1CCO [metronidazole]
cases in which infection reoccurs (C. diff. infection): 20%

CN[C@H](CC(C)C)C(=O)N[C@H]1C(=O)N[C@@H](CC(N)=O)C(=O)N[C@H]2C(=O)N[C@H]3C(=O)N[C@H](C(=O)N[C@H](C(=O)O)c4cc(O)cc(O)c4-c4cc3ccc4O)[C@H](O)c3ccc(c(Cl)c3)Oc3cc2cc(c3O[C@@H]2O[C@H](CO)[C@@H](O)[C@H](O)[C@H]2O[C@H]2C[C@](C)(N)[C@H](O)[C@H](C)O2)Oc2ccc(cc2Cl)[C@H]1O [vancomycin]
cases in which infection reoccurs (C. diff. infection): 20%

DGWIQHYKHR [NPC, computationally designed 10-mer peptide from previous work]
ΔGbinding (TcdA GTD catalytic site): -6.15 | neutralization of TcdA in jejunum / small intestinal cells [1]: neutralized toxin A in jejunum cells

HEWGRRHN [SA7]
change in green fluorescence from center to halo (TcdA binding) region (TcdA GTD): All peptides except SA7 showed a significant (p < 0.005) decrease in green fluorescence
